Drawing on the METLIN SMRT retention time set (Domingo-Almenara et al. 2019), this text covers RP-LC retention time for 78 molecules.

The data set can be described thus: gradient 5% acetonitrile 3 min, to 50% in 2 min, to 85% in 15 min, held 3 min, 100 µL/min. To be noted: column: Zorbax Extend-C18 2.1 x 50 mm; eluents: water / acetonitrile, 0.1% formic acid. Put shortly: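 Each retention time is based on an adduct peak selected computationally and verified by manual inspection. Measurements used HPLC–quadrupole time-of-flight mass spectrometry in positive and negative ionization mode on mixtures of ~100 pure standards. Chromatography ran on a Zorbax Extend-C18 column (2.1 × 50 mm, 1.8 μm) at 100 μL/min with water and acetonitrile, each containing 0.1% formic acid, and dead and dwell volumes of 40 μL and 900 μL.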
`CC(C)n1cnc(S(=O)(=O)N2CCC(C(=O)N3CCN(c4ccc(F)cc4)CC3)CC2)c1`: the RP-LC retention time is 799 s. `O=C(c1ccc(OCC2CCCN2C(=O)COc2ccc(F)cc2)cc1)N1CCOCC1` (stereo not drawn) displayed an RP-LC retention time of 778 s.

On to `CCCCOc1ccc(C(=O)N2CCCC2c2nc(-c3ccccc3)no2)cc1` (stereo not drawn), for which the RP-LC retention time stood at 1230 s. Turning to `CCSc1nc2ccc(NS(=O)(=O)c3cc(C)cc(C)c3)cc2s1`, the RP-LC retention time was determined as 1120 s. Turning to `O=C(O)c1nnn(-c2ccc(F)cc2)c1-c1ccncc1`, the RP-LC retention time turned out to be 612 s.

Regarding `CCc1cccc(NC(=O)Cn2ccc3ccc(-c4nnc(C)o4)cc32)c1`, the RP-LC retention time turned out to be 798 s.

As to `CC(N)Cc1c[nH]c2ccc(OCc3cccs3)cc12` (stereo not drawn), the RP-LC retention time stood at 734 s. In turn, `Clc1ccccc1-c1noc(Cc2nc(-c3ccccc3)cs2)n1` yielded an RP-LC retention time of 1180 s. Molecule `COc1ccc(OC)c(CNC(=O)NC2COc3ccc(OC)cc3C2)c1` (stereo not drawn) yielded an RP-LC retention time of 810 s. Turning to `Cn1nnnc1C1CCCN(C(=O)Nc2ccc3c(c2)OCCO3)C1` (stereo not drawn), the RP-LC retention time came out at 661 s.

`CCCN1C(=O)COc2ccc(-c3noc(C4CC(=O)N(c5ccc(C)cc5)C4)n3)cc21` (stereo not drawn) yielded an RP-LC retention time of 941 s. With `CCOC(=O)c1[nH]c(C)c(CCC(=O)N2CCC(C(=O)NCCCc3ccccc3)CC2)c1C`, the RP-LC retention time was 842 s.

The molecule `CCN(CC)C(=O)N1CCC(Oc2ccc(-c3noc(COC)n3)cc2)C1` (stereo not drawn) displayed an RP-LC retention time of 874 s. Then `Cc1ccc(S(=O)(=O)N2CCC(c3nc(C(=O)N4CCCC4)c(C)o3)CC2)cc1C`, with 747 s; and `COC(=O)c1cc2ccsc2n1CC(=O)Nc1ccc(F)cc1F`, with 949 s. As for `COCCCNS(=O)(=O)c1ccccc1-c1nc(-c2cccc(F)c2)no1`, the figure is 1040 s; as for `CCc1ccc(-c2ccc(-n3nc(C)c(S(=O)(=O)N4CCOCC4)c3C)nn2)cc1`, 1070 s. In the case of `c1ccc(-c2nc(-c3ccc(-n4cccn4)nc3)no2)cc1`, the RP-LC retention time came out at 1200 s.

`Cc1noc(-c2ccc(=O)n(CC(=O)NC3CCc4ccccc43)c2)n1` (stereo not drawn) showed an RP-LC retention time of 669 s. In turn, `Cc1cc(C)cc(NC(=O)c2c(C)oc3nc(C)nc(N4CCOCC4)c23)c1` gave an RP-LC retention time of 888 s. As for `O=S(=O)(c1ccc2nc(N3CCN(c4ccc(F)cc4)CC3)ccc2c1)N1CCOCC1`, the figure is 890 s. Consider `COCCc1noc(-c2cnc3nc(C)ccc3c2Nc2ccccc2)n1`, for which the RP-LC retention time was found to be 677 s. As for `COc1ccc2c(c1)C1CC(C)(O2)N(C)C(=O)C1S(=O)(=O)c1ccccc1` (stereo not drawn), the figure is 916 s; as for `CN1CCCc2cc(CCNC(=O)c3c(F)cccc3F)ccc21`, 614 s; as for `Cc1ccc(-c2noc(CN3N=NC4C(=O)N(c5ccc(F)cc5)C(=O)C43)n2)cc1` (stereo not drawn), 1020 s. As for `O=C(c1csc(S(=O)(=O)N2CCC(C(=O)N3CCCCCC3)CC2)c1)N1CCCCCC1`, the figure is 876 s; as for `O=C(Cn1nc2c(N3CCCCCC3)nccn2c1=O)NCc1ccc2c(c1)OCO2`, 659 s; as for `Cc1ccc(-c2cc(-c3nc4c5ccccc5ncn4n3)[nH]n2)c(C)c1`, 900 s.

On to `O=C([C@H]1C[C@@H](F)CN1S(=O)(=O)c1cccc(C(F)(F)F)c1)N1CCOCC1`, for which the RP-LC retention time is 769 s.

Take `COc1ccc(N2CCN(Cc3nc4ccccc4[nH]c3=O)CC2)cc1`: the RP-LC retention time was determined as 614 s.

In turn, `Cc1cc(NC(=O)c2c(O)c3cccnc3n(-c3cccc(F)c3)c2=O)ccc1F` came in with an RP-LC retention time of 1310 s. As for `CCOC(=O)c1[nH]c(C)c(CCC(=O)N2CCC(C(=O)NCCc3ccc(C)cc3)CC2)c1C`, the figure is 843 s; as for `CCS(=O)(=O)c1nc2ccc(NS(=O)(=O)c3ccc4c(c3)oc(=O)n4C)cc2s1`, 805 s. As for `Cc1ccc(CN2C(=O)CN(S(C)(=O)=O)CC2(C)C(=O)NCc2ccccc2)cc1` (stereo not drawn), the figure is 851 s; as for `CCCCNc1ncc(C(=O)O)c(-c2ccncc2)n1`, 612 s. Then `O=C(CN1C(=O)C(O)(c2cccc(F)c2)c2ccccc21)NCCC1=CCCCC1` (stereo not drawn), with 965 s; and `COc1ccc(NC(=O)N2[C@H]3CC[C@@H]2c2cncnc2C3)c(OC)c1`, with 639 s.

For the molecule `C=C(C)Cn1c(C2CC(=O)N(c3ccccc3Br)C2)nc2ccccc21` (stereo not drawn), the RP-LC retention time turned out to be 708 s. For `CCCc1cc(C2CCCN2C(=O)Nc2ccc(OC)c(OC)c2)no1` (stereo not drawn), the RP-LC retention time came to 778 s. For `O=C(Cn1c(=O)c2cccn2c2ccccc21)Nc1ccc(Cl)cc1`, the RP-LC retention time stood at 901 s. As for `N#Cc1cccc(NC(=O)Cn2cccc2-c2nc(-c3ccc4c(c3)OCO4)no2)c1`, the figure is 924 s.

The molecule `c1ccc(-c2nc(-c3ccncc3)no2)c(OC2CCNC2)c1` (stereo not drawn) yielded an RP-LC retention time of 604 s. As for `CCn1cc(-c2ccncc2)cc1C(=O)NCc1ccc(Cl)cc1`, the figure is 679 s; as for `CCOc1cc(C2C(C(=O)N3CCCCC3)=C(C)NC3=C2C(=O)CCC3)ccc1OC(C)=O` (stereo not drawn), 710 s; as for `Cc1ccccc1CNS(=O)(=O)c1cc(-c2[nH]ncc2C(=O)N(C)C)oc1C`, 701 s.

`CCn1cc(CC(=O)N2CCC(N3CCCCC3)CC2)c2cccnc21` had an RP-LC retention time of 553 s. As for `Cc1nc(-c2cc(S(=O)(=O)N3CCN(c4cccc(Cl)c4)CC3)c(C)s2)cs1`, the figure is 1270 s; as for `CC(=O)c1cccc(NC(=O)Cn2cc(-c3ccccc3)c3ncn(C4CC4)c(=O)c32)c1`, 877 s; as for `CN1C(=O)COc2ccc(-c3csc(NC(=O)c4ccc(Cl)cc4)n3)cc21`, 1010 s. As for `CC(C)Cn1c(-c2cccc(C(=O)NCC3CCCO3)c2)nc2cccnc21` (stereo not drawn), the figure is 699 s; as for `CC(C)Cc1nnc(NC(=O)C2CCN(C(=O)c3ccccc3)CC2)s1`, 750 s. Then `Cc1ccc2c(=O)c(C(=O)N3CCOCC3)cn(CC(=O)NC3CCCCC3)c2n1`, with 653 s; and `CCOc1ccc(-c2cn3ccn(-c4ccc(C)c(C)c4)c(=O)c3n2)cc1`, with 949 s. In the case of `CCOc1nc2ccccc2nc1N1CCCC(C(=O)Nc2ccccc2C(C)C)C1` (stereo not drawn), the RP-LC retention time was 1230 s. As for `CCCC[C@@]1(C2CCCC2)Cc2cc(OCC(=O)O)c(Cl)c(Cl)c2C1=O`, the figure is 1320 s. `COCC(=O)N1CCCc2ccc(NC(=O)c3cc(C)oc3C)cc21` registered an RP-LC retention time of 725 s. Take `Cc1cccc(NC(=O)N2CCN(c3cc(C)nc(N4CCCC4)n3)CC2)c1`: the RP-LC retention time was found to be 680 s.

Turning to `COc1ccc(NC(=O)C2CCCN2S(=O)(=O)c2ccc3c(c2)CCCC(=O)N3)cc1Cl` (stereo not drawn), the RP-LC retention time came to 787 s. As for `Cn1cc(CCNC(=O)c2ccccc2Br)c2cccnc21`, the figure is 660 s; as for `COc1ccc(N2CCN(C(=O)CCC(=O)N3CCCn4nc(-c5cccn5C)cc43)CC2)cc1`, 711 s; as for `O=C(Cn1cccc1-c1nnc(C2CCC2)o1)NCc1ccc(Cl)cc1`, 907 s.

Consider `Cc1cccc(C)c1Nc1c(-c2ccc(N(C)C)cc2)nc2ncccn12`, for which the RP-LC retention time amounted to 747 s.

In the case of `CCOc1ccc(C(=O)N2CCCC(c3nnc(-c4ccccc4)o3)C2)cc1` (stereo not drawn), the RP-LC retention time worked out at 892 s. Then `Clc1ccc2nc(-c3ccc(N4CCOCC4)cc3)c(Nc3ccccc3)n2c1`, with 752 s. Then `O=C1Nc2cc(C(=O)N3CCN(c4cccc(Cl)c4)CC3)ccc2N2CCCCC12` (stereo not drawn), with 975 s; and `O=C(NCc1cc(F)ccc1F)c1ccc2ncnc(N3CCCCC3)c2c1`, with 671 s; and `CCOc1ccc(S(=O)(=O)NCC(c2cn(C)c3ccccc23)N(C)C)cc1F` (stereo not drawn), with 603 s. Molecule `CCS(=O)(=O)N1CCCC(Cn2cc(COc3ccc4c(c3)CCC4)nn2)C1` (stereo not drawn) showed an RP-LC retention time of 963 s. Take `COc1cccc(CNC(=O)C2(C)CCCN(C(=O)Nc3ccc(C)c(Cl)c3)C2)c1` (stereo not drawn): the RP-LC retention time worked out at 982 s. As for `Cc1ccc(C)c2c(=O)c3c([nH]c12)CCN(CC(=O)Nc1ccc(F)cc1F)C3`, the figure is 648 s; as for `CC(NC(=O)c1cnn2c(-c3ccc4c(c3)OCO4)ccnc12)c1ccc(F)cc1` (stereo not drawn), 1000 s; as for `COc1ccc(NC(=O)C2CC(=O)N(c3ccc4c(c3)CCN4C(=O)C3CC3)C2)cc1` (stereo not drawn), 740 s. With `O=C(Cc1csc(NC(=O)C2CCC(=O)N2)n1)NCCC1=CCCCC1` (stereo not drawn), the RP-LC retention time stood at 643 s.

Regarding `CCOC(=O)c1ccc(NC(=O)C2CCN(S(=O)(=O)c3cn(C(C)C)cn3)CC2)cc1`, the RP-LC retention time was 789 s. Molecule `O=C(Cn1c(=O)oc2ccccc21)N1CCN(C(=O)C2CC2c2cccs2)CC1` (stereo not drawn) yielded an RP-LC retention time of 738 s.

Molecule `CC(=O)Nc1ccc(SCc2c(F)cccc2Cl)nn1` yielded an RP-LC retention time of 787 s. Molecule `O=C(Nc1ccc(F)cc1F)C1CCCN(S(=O)(=O)c2c[nH]c(C(=O)N3CCCC3)c2)C1` (stereo not drawn) yielded an RP-LC retention time of 792 s. As for `CCc1onc(C)c1C1CCCN1C(=O)CCc1ccccc1` (stereo not drawn), the figure is 846 s.
